According to patent US12226410B2, “Methods for enhancing cellular clearance of pathological molecules via activation of the cellular protein ykt6” (NORTHWESTERN UNIVERSITY, priority 2019, dated 2025):

Experiments:
A53T iPSn = assay: Measurement of neuron viability (neurofilament); type: cell-based, human; details: A53T iPSn analyzed at day 100; 5 nM, 14d
Description: FIGS. 6A, 6B, 6C, 6D, 6E, 6F, and 6G. FTIs enhance lysosomal GCase activity and reduce pathological a-syn by blocking ykt6 farnesylation. 6A) GCase activity in FTI-treated A53T iPSn at d80 (LNK-754 5 nM, 5d). 6B) GCase activity in FTI-treated A53T iPSn expressing empty vector (vect) or ykt6-CS (n=4). 6C) Lysosomal GCase activity was assessed in FTI-treated SHSY5Y cells transfected with scrambled or ykt6 shRNA (KD) (n=3). 6D) Quantification of Triton X-100 soluble (T-sol) a-syn by western blot from FTI-treated A53T iPSn (5 nM, 7d). *, non-specific band. (n=3). 6E) Quantification of insoluble a-syn from A53T iPSn as in D (n=3). 6F) Insoluble a-syn in FTI-treated H4 cells (5 nM, 5 days) transfected with either scrambled or ykt6 shRNA (n=6). 6G) Neuron viability was assessed in FTI-treated A53T iPSn (5 nM, 14d from d86-d100) by quantification of neurofilament protein. […]
Measurement of neuron viability. iPSC-neurons were seeded on a PDL/laminin coated 96 well plate and analyzed and treated with either lentivirus expressing ykt6 CS vs empty vector, or DMSO vs 5 nM FTI (LNK-754) for 14 days. […] Neurofilament intensity was determined using Image Studio software (version 2.1 Li-cor) and normalized to cell volume. Replicates represent values from four individual culture wells and were analyzed by Student's T-test using GraphPad Prism software V 6.0. […]

ykt6 = assay: Ykt6 membrane shift analysis (cytosol/membrane fractions) in FTI-treated cultures; type: cell-based, human; details: SH-SY5Y wt a-syn cells and A53T iPSn; 5 nM, 5 days
Description: FIGS. 5A, 5B, 5C, 5D, 5E, 5F, and 5G. Reducing farnesyl-ykt6 enhances SNARE assembly and improves the lysosomal targeting of GCase. 5A) Ykt6 membrane shift analysis of SH-SY5Y cells expressing GFP-ykt6 wt or CS (n=3). 5B) Co-IP of GFP-ykt6 and bet1 in A53T iPSn (n=3). 5C) Ykt6 membrane shift analysis in FTI-treated SH-SY5Y wt a-syn cells or A53T iPSn (5 nM farnesyltransferase inhibitors (FTI) LNK-754 (FTI-1) or LNK-3248 (FTI-2) for 5 days) (n=4). Sec22b was measured to assess specificity. 5D) SEC/western blot of FTI-1 treated SH-SY5Y cells. Quantification is shown below. 5E) Co-IP of GFP-ykt6 wt or mutant ykt6-SS, (cannot be palmitoylated or farnesylated) in FTI-treated SHSY5Y cells (5 nM LNK-754, 5d) (n=2). 5F) Immunofluorescence of GCase and LAMP2A in FTI-treated H4 a-syn cells transfected with scrambled (scrb) or ykt6 shRNA (n=3). Scale bar=10 um. 5G) GCase maturation analysis in FTI-treated A53T iPSn by endo H (n=3). Values are the mean+/−SEM, *p<0.05.
Separation of lysates into cytosol and membrane fractions. […] Fractions were then analyzed by western blot analysis as described below. The samples were not analyzed in a blinded manner.
Treatment of cultures with farnesyltransferase inhibitors. […] Cultures were harvested and analyzed as described in the above sections.

Structure (SMILES): C#Cc1cccc(-c2cc(=O)n(C)c3ccc([C@](O)(c4ccc(Cl)cc4)c4cncn4C)cc23)c1 [LNK-754]
- neuron viability (A53T iPSn): improved neuron viability
- membrane association of ykt6 (ykt6): increased membrane association of ykt6
- sec22b levels (specificity) (ykt6): did not change
